Experimental data reported in publication PMC10719761 (Journal of the American Chemical Society, 2023).

Key:
[1] = Incubation with GSH at pH 7.4; type: physicochemical; details: pH 7.4, within 4 h of incubation
[2] = cited from earlier work

corresponding GSH adduct produced [1]	Compound	pKa [2]
more than 50%	COc1ccc2c(c1)CCCN2C(=O)CCl [Compound 11]	
	N[C@@H](CCC(=O)N[C@@H](CS)C(=O)NCC(=O)O)C(=O)O [GSH, glutathione]	9.17
